Experimental data reported in patent publication US7531651B2, “Benzenesulphonate salt of a morpholine urea derivative for use as a CCR-3 antagonist in the treatment of inflammatory conditions” (Glaxo Group Limited, priority 2002, dated 2009).

What was measured:
CCR-3 = biological target: T1, CCR-3 (Homo sapiens, UniProt P51677); experiment: CCR-3 competition binding SPA ([125I]eotaxin); details: membranes from K562 cells stably expressing CCR-3; 20 pM [125I]eotaxin; read-out: pIC50 (inhibition of [125I]eotaxin binding) (converted)
T1 construct: expressed in transfected cells
T1 sequence (P51677 1-355): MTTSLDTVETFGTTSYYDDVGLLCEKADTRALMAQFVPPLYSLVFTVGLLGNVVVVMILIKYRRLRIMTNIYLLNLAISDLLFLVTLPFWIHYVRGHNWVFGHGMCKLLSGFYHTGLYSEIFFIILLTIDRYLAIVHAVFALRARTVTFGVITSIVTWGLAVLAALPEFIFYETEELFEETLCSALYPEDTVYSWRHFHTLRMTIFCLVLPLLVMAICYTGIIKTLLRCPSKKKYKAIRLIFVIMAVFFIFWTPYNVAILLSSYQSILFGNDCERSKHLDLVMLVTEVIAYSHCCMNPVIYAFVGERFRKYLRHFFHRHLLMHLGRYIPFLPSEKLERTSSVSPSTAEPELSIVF
Protocol: A CCR-3 competition binding SPA (scintillation proximity assay) was used to assess the affinity of novel compounds for CCR-3. Membranes prepared from K562 cells stably expressing CCR-3 (2.5 μg/well) were mixed with 0.25 mg/well wheat-germ agglutinin SPA beads (Amersham) and incubated in binding buffer (HEPES 50 mM, CaCl2 1 mM, MgCl2 5 mM, 0.5% BSA) at 4° C. for 1.5 hr. Following incubation, 20 pM of [^125I] eotaxin (Amersham) and increasing concentrations of compound (1 pM to 30 μM) were added and incubated in a 96 well plate for 2 hr at 22° C. then counted on a Microbeta plate counter. The total assay volume was 100 μl. Competition binding data were analysed by fitting the data with a four parameter logistic equation. Data are presented as the mean pIC50 values (negative logarithm of the concentration of compound which inhibits [^125I]eotaxin binding by 50%) from at least two experiments.

eosinophils = experiment: Eosinophil chemotaxis assay (eotaxin-induced); assay type: cell-based; details: human peripheral blood eosinophils; agonist eotaxin at EC80
Protocol: (b) Eosinophil Chemotaxis Assay.
Compounds were evaluated for their inhibitory effect on eosinophil chemotaxis. Eosinophils were purified from human peripheral blood by standard CD16 cell depletion using a Miltenyi cell separation column and a magnetic Super Macs magnet as previously described (Motegi & Kita, 1998; J. Immunology. 161:4340-6). Cells were re-suspended in RPMI 1640/10% FCS solution and incubated with calcein-AM (Molecular Probes) at 37° C. for 30 mins. Following incubation, the eosinophils were centrifuged at 400 g for 5 min and re-suspended in RPMI/FCS at 2.2 million/ml. Cells were then incubated in the presence of increasing concentration of compounds (1 μM to 30 μM) at 37° C. for 30 mins. For control responses cells were incubated with RPMI/FCS only. The agonist eotaxin (either a concentration response curve or for the functional inhibition curves an EC80 concentration) was added to the lower chamber of a 96 well chemotaxis plate (5 μm filter: Receptor Technologies). […] Cells remaining on top of the chemotaxis filter were removed and the number of eosinophils which had migrated were quantified by reading the plate on a fluorescent plate reader. Inhibition curves for the effect of compounds on eosinophil chemotaxis were analysed by fitting the data with a four parameter logistic equation. […]

Hygroscopicity = assay type: physicochemical
[1] = Solubility in water versus free base
[2] = Stability in aqueous solution (impurity profiles); details: presence and absence of light, 8 days, pH range 2-10
Text: Thus a convenient method for determining the stability of the compounds of the invention in aqueous solution involves determining the impurity profiles of an aqueous solution of the test compound at known conditions of temperature and over known periods of time.

[3] = Solid form storage stability tests (temperature/humidity/light)
Text: The stability of the compound of the invention may be determined using conventional quantitative analytical methods: For example the stability of the compound in the solid form may be determined by using accelerated stability tests such as differential scanning calorimetry (DSC), thermogravimetric analysis (TGA) and isothermal testing at elevated temperatures including conventional storage tests wherein the test compound is stored under controlled conditions of temperature and humidity over known periods of time. Quantitative analysis of the test compounds, against appropriate reference standards before, during and after the storage period allows the stability of the test compound to be determined.

Compound: NC(=O)c1ccc(CNC(=O)NC[C@H]2CN(Cc3ccc(Cl)c(Cl)c3)CCO2)cc1.O.O.O=S(=O)(O)c1ccccc1 [compound of the invention, 4-({[({[(2S)-4-(3,4-dichlorobenzyl)morpholin-2-yl]methyl}amino)carbonyl]amino}methyl)benzamide benzenesulfonate dihydrate]
- IC50 (CCR-3): < 10 µM
- fpKi (functional pKi) (eosinophils): greater than 5
- hygroscopicity (Hygroscopicity): non-hygroscopic
- solubility in water compared with the free base [1]: more soluble in water than the corresponding free base
- aqueous stability [2]: good aqueous stability
- degradation on storage (solid form) ([3]; 50° C./ambient conditions, 25 days): no significant degradation
- degradation on storage (solid form) ([3]; light cabinet, ambient conditions, 14 days): no significant degradation
